From paper PMC9931918, “Conjugation to a cell-penetrating peptide drives the tumour accumulation of the GLP1R antagonist exendin(9-39)” (European Journal of Nuclear Medicine and Molecular Imaging, 2022)

Tests used:
[1] = test system: CHL-GLP1R cells; assay: Binding and internalisation assay of 111In-labelled exendin variants on GLP1R-positive cells; format: cell-based, Chinese hamster
[2] = in vivo; parameters: species or system BALB/c nude mice; conditions: BALB/c nude, mouse, iv, 20 pmol/mouse, total radioactivity
Procedure: Mice were injected subcutaneously on the right flank with 0.2 mL of a cell suspension containing 15,000,000 INS-1 cells/mL in RPMI (3,000,000 cells/mouse). When the tumours were 2–5 mm in diameter, mice were randomly divided into groups and the experiment was performed. All mice were intravenously injected with 20 pmol/mouse (0.37 MBq/mouse) of the corresponding radiolabelled exendin variant in approximately 200 μL PBS/0.5% BSA. 12 mice received [^111In]In-DTPA-exendin-4 (referred to as exendin-4), 12 mice received [^111In]In-DTPA-exendin-4-Pen (referred to as exendin-4-Pen), 11 mice received [^111In]In-DTPA-exendin(9-39) (referred to as exendin(9-39) and 11 mice received [^111In]In-DTPA-exendin(9-39)-Pen (referred to as exendin(9-39)-Pen). To determine non-specific uptake, an excess of unlabelled peptide was injected (blocking group). A 100-fold excess of unlabelled DTPA-exendin-4 or DTPA-exendin(9-39) was co-injected (5 or 6 mice per group). Blocking groups were only included at the 4 h timepoint, to reduce the number of mice used as a control. After 1 h and 4 h after injection, mice were euthanized by CO2/O2 asphyxiation. Blood, tumours and relevant tissues (muscle, heart, lung, spleen, pancreas, kidney, liver, stomach, duodenum and colon) of all animals were dissected, weighed and measured in a gamma-counter (2480 Wizard 3”, LKB/Wallace, Perkin-Elmer, Waltham, MA, USA). The percentage injected dose per gram tissue (% ID/g) was determined for each tissue, based on the cpm measured for diluted injection mixtures (standards). For the statistical analysis, the data were log transformed to correct for differences in the intra-group spread and ensure a normal distribution. The difference in tumour uptake between the four compounds was evaluated separately for each timepoint, with a one-way ANOVA and Tukey’s post hoc test. We accepted a type I alpha error of 0.05. The number of animals per group was selected assuming an SD of 10% of the mean, to reach a statistical power of 80% (beta type error = 0.2).

CC[C@H](C)[C@H](NC(=O)[C@H](Cc1ccccc1)NC(=O)[C@H](CC(C)C)NC(=O)[C@H](CCCNC(=N)N)NC(=O)[C@@H](NC(=O)[C@H](C)NC(=O)[C@H](CCC(=O)O)NC(=O)[C@H](CCC(=O)O)NC(=O)[C@H](CCC(=O)O)NC(=O)[C@H](CCSC)NC(=O)[C@H](CCC(N)=O)NC(=O)[C@H](CCCCN)NC(=O)[C@H](CO)NC(=O)[C@H](CC(C)C)NC(=O)[C@@H](N)CC(=O)O)C(C)C)C(=O)N[C@@H](CCC(=O)O)C(=O)N[C@@H](Cc1c[nH]c2ccccc12)C(=O)N[C@@H](CC(C)C)C(=O)N[C@@H](CCCCN)C(=O)N[C@@H](CC(N)=O)C(=O)NCC(=O)NCC(=O)N1CCC[C@H]1C(=O)N[C@@H](CO)C(=O)N[C@@H](CO)C(=O)NCC(=O)N[C@@H](C)C(=O)N1CCC[C@H]1C(=O)N1CCC[C@H]1C(=O)N1CCC[C@H]1C(=O)N[C@@H](CO)C(=O)N[C@@H](CCCNC(=N)N)C(=O)N[C@@H](CCC(N)=O)C(=O)N[C@H](C(=O)N[C@@H](CCCCN)C(=O)N[C@H](C(=O)N[C@@H](Cc1c[nH]c2ccccc12)C(=O)N[C@@H](Cc1ccccc1)C(=O)N[C@@H](CCC(N)=O)C(=O)N[C@@H](CC(N)=O)C(=O)N[C@@H](CCCNC(=N)N)C(=O)N[C@@H](CCCNC(=N)N)C(=O)N[C@@H](CCSC)C(=O)N[C@@H](CCCCN)C(=O)N[C@@H](Cc1c[nH]c2ccccc12)C(=O)N[C@@H](CCCCN)C(=O)N[C@@H](CCCCNC(=O)CN(CCN(CCN(CC(=O)O)CC(=O)O)CC(=O)O)CC(=O)O)C(N)=O)[C@@H](C)CC)[C@@H](C)CC [[111In]In-exendin(9-39)-Pen, metal not drawn]
binding to CHL-GLP1R cells compared with the unconjugated peptide ([1]; 30 minutes and 4 hours incubation at 37 °C, approx. 50 pM, acid-releasable fraction): increased binding
internalisation (percentage of the total activity added) ([1]; CHL-GLP1R cells, 4 hours incubation at 37 °C, approx. 50 pM 111In-labelled peptide in RPMI-1640 with 0.5% BSA, acid wash then NaOH lysis, γ-counter, mean ± SD of three wells): 17.7 ± 0.5%
tissue uptake at 1 h ([2]; pancreatic uptake): 2.2 ± 0.3 %ID/g
tissue uptake at 4 h ([2]; pancreatic uptake): 1.2 ± 0.2 %ID/g
tissue uptake at 1 h ([2]; tumour accumulation): 8.6 ± 2.2 %ID/g
tissue uptake at 4 h ([2]; tumour accumulation): 6.6 ± 1.2 %ID/g
